How the values were obtained:
HSP90a protein = target: T1, HSP90a protein (Homo sapiens, UniProt P07900); experiment: HSP90α-binding fluorescent polarization (FP) assay, BODIPY-labeled RNK04010 probe; details: FP competition with RNK04010 (BODIPY-labeled), 5 nM, 300 min at 25° C.
T1 construct: purchased BPS Bioscience 50298
Outline: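 Competitive FP with N-terminal HSP90a; probe at 5 nM final, either BODIPY-labeled triazolone RNK04010 or FITC-geldanamycin. Test compounds as 2.5-fold dilutions from 20 μM to 5.2 nM. Incubated at 25 °C for 300 min (RNK04010) or 120 min (FITC-geldanamycin) before reading polarization.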

[1] = tested on: NCI-H358 human non-small cell lung cancer; experiment: NCI-H358 CCK-8 proliferation assay; format: cell-based; details: NCI-H358 cells, 72 hr
Outline: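 Compounds were tested as a 3-fold series from 20 μM down to 1.02 nM in CCK-8 absorbance assays. The lines used were NCI-H23 and NCI-H358, each with 1 KRAS(G12C) copy, and MIA PaCa-2 with 2 copies. Inhibition was derived relative to DMSO controls, with a no-cell blank subtracted.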

SMILES | IC50 (HSP90a protein) | EC50 [1]
CC(=O)N1CCN(c2nc(NCCC(=O)N3CCN(Cc4ccc5c(c4)CN(C(=O)c4cc(C(C)C)c(O)cc4O)C5)CC3)nc3c2CCN(c2cc(O)cc4ccccc24)C3)CC1 [Compound 56, 3-((4-(4-acetylpiperazin-1-yl)-7-(3-hydroxynaphthalen-1-yl)-5,6,7,8-tetrahydropyrido[3,4-d]pyrimidin-2-yl)amino)-1-(4-((2-(2,4-dihydroxy-5-isopropylbenzoyl)isoindolin-5-yl)methyl)piperazin-1-yl)propan-1-one, trifluoroacetic acid] | 0.1 to 1 µM | > 1 µM
C=C(F)C(=O)N1CCN(c2nc(OC[C@@H]3CCN(C(=O)c4ccc(Nc5cc(-n6nc(C(F)(F)F)c7c6CC(C)(C)CC7=O)ccc5C(N)=O)cc4)C3)nc3c2CCN(c2cccc4cccc(Cl)c24)C3)C[C@@H]1CC#N [Compound 163, 2-((4-((R)-3-(((7-(8-chloronaphthalen-1-yl)-4-((S)-3-(cyanomethyl)-4-(2-fluoroacryloyl)piperazin-1-yl)-5,6,7,8-tetrahydropyrido[3,4-d]pyrimidin-2-yl)oxy)methyl)pyrrolidine-1-carbonyl)phenyl)amino)-4-(6,6-dimethyl-4-oxo-3-(trifluoromethyl)-4,5,6,7-tetrahydro-1H-indazol-1-yl)benzamide] | > 1 µM | > 1 µM
CCC(=O)N1CCN(c2nc(NCCC(=O)NCc3ccc(-n4c(O)nnc4-c4cc(C(C)C)c(O)cc4O)cc3)nc3c2CCN(c2cc(O)cc4ccccc24)C3)CC1 [Compound 50, N-(4-(3-(2,4-dihydroxy-5-isopropylphenyl)-5-hydroxy-4H-1,2,4-triazol-4-yl)benzyl)-3-((7-(3-hydroxynaphthalen-1-yl)-4-(4-propionylpiperazin-1-yl)-5,6,7,8-tetrahydropyrido[3,4-d]pyrimidin-2-yl)amino)propanamide, trifluoroacetic acid] | 0.1 to 1 µM | > 1 µM
C=CC(=O)N1CCN(c2nc(NCCC(=O)NCCc3ccc(-n4c(O)nnc4-c4cc(C(C)C)c(O)cc4O)cc3)nc3c2CCN(c2cc(O)cc4ccccc24)C3)CC1 [Compound 4, 3-((4-(4-acryloylpiperazin-1-yl)-7-(3-hydroxynaphthalen-1-yl)-5,6,7,8-tetrahydropyrido[3,4-d]pyrimidin-2-yl)amino)-N-(4-(3-(2,4-dihydroxy-5-isopropylphenyl)-5-hydroxy-4H-1,2,4-triazol-4-yl)phenethyl)propanamide, trifluoroacetic acid] | 0.1 to 1 µM | > 1 µM
C=CC(=O)N1CCN(c2nc(NCCC(=O)NCc3ccc(CN4CCC(Cc5ccc(-n6c(C(=O)NCC(F)(F)F)nnc6-c6cc(CC)c(O)cc6O)cc5)CC4)cc3)nc3c2CCN(c2cc(O)cc4ccccc24)C3)CC1 [Compound 125, 4-(4-((1-(4-((3-((4-(4-acryloylpiperazin-1-yl)-7-(3-hydroxynaphthalen-1-yl)-5,6,7,8-tetrahydropyrido[3,4-d]pyrimidin-2-yl)amino)propanamido)methyl)benzyl)piperidin-4-yl)methyl)phenyl)-5-(5-ethyl-2,4-dihydroxyphenyl)-N-(2,2,2-trifluoroethyl)-4H-1,2,4-triazole-3-carboxamide, trifluoroacetic acid] | 0.1 to 1 µM | 0.1 to 1 µM
C=C(F)C(=O)N1CCN(c2nc(OC[C@@H]3CCCN3C(=O)COc3ccc(Nc4cc(-n5nc(C(F)(F)F)c6c5CC(C)(C)CC6=O)ccc4C(N)=O)cc3)nc3c2CCN(c2cccc4cccc(Cl)c24)C3)C[C@@H]1CC#N [Compound 164, 2-((4-(2-((S)-2-(((7-(8-chloronaphthalen-1-yl)-4-((S)-3-(cyanomethyl)-4-(2-fluoroacryloyl)piperazin-1-yl)-5,6,7,8-tetrahydropyrido[3,4-d]pyrimidin-2-yl)oxy)methyl)pyrrolidin-1-yl)-2-oxoethoxy)phenyl)amino)-4-(6,6-dimethyl-4-oxo-3-(trifluoromethyl)-4,5,6,7-tetrahydro-1H-indazol-1-yl)benzamide] | > 1 µM | > 1 µM
C=CC(=O)N1CCN(c2nc(NCCC(=O)NCc3ccc(-n4c(O)nnc4-c4cc(C(C)C)c(O)cc4O)cc3)nc3c2CCN(c2cc(O)cc4ccccc24)C3)CC1 [Compound 7, 3-((4-(4-acryloylpiperazin-1-yl)-7-(3-hydroxynaphthalen-1-yl)-5,6,7,8-tetrahydropyrido[3,4-d]pyrimidin-2-yl)amino)-N-(4-(3-(2,4-dihydroxy-5-isopropylphenyl)-5-hydroxy-4H-1,2,4-triazol-4-yl)benzyl)propanamide, trifluoroacetic acid] | 0.1 to 1 µM | > 1 µM
C=CC(=O)N1CCN(c2nc(NCCC(=O)N3CCN(Cc4ccc5c(c4)CN(C(=O)c4cc(CCC)c(O)cc4O)C5)CC3)nc3c2CCN(c2cc(O)cc4ccccc24)C3)CC1 [Compound 94, 1-(4-(2-((3-(4-((2-(2,4-dihydroxy-5-propylbenzoyl)isoindolin-5-yl)methyl)piperazin-1-yl)-3-oxopropyl)amino)-7-(3-hydroxynaphthalen-1-yl)-5,6,7,8-tetrahydropyrido[3,4-d]pyrimidin-4-yl)piperazin-1-yl)prop-2-en-1-one, trifluoroacetic acid] | > 1 µM | > 1 µM

Results, then the molecule that gave them:

IC50 (HSP90a protein) | EC50 [1] | SMILES
< 0.1 µM | > 1 µM | C=CC(=O)N1CCN(c2nc(NCCC(=O)NCC3CCN(C(=O)C4CCN(Cc5ccc(-n6c(O)nnc6-c6cc(C(C)C)c(O)cc6O)cc5)CC4)CC3)nc3c2CCN(c2cccc4cccc(Cl)c24)C3)C[C@H]1CC#N [Compound 102, (R)-3-((4-(4-acryloyl-3-(cyanomethyl)piperazin-1-yl)-7-(8-chloronaphthalen-1-yl)-5,6,7,8-tetrahydropyrido[3,4-d]pyrimidin-2-yl)amino)-N-((1-(1-(4-(3-(2,4-dihydroxy-5-isopropylphenyl)-5-hydroxy-4H-1,2,4-triazol-4-yl)benzyl)piperidine-4-carbonyl)piperidin-4-yl)methyl)propanamide, trifluoroacetic acid]
0.1 to 1 µM | > 1 µM | CCC(=O)N1CCN(c2nc(NCCC(=O)NCCc3ccc(-n4c(O)nnc4-c4cc(C(C)C)c(O)cc4O)cc3)nc3c2CCN(c2cc(O)cc4ccccc24)C3)CC1 [Compound 74, N-(4-(3-(2,4-dihydroxy-5-isopropylphenyl)-5-hydroxy-4H-1,2,4-triazol-4-yl)phenethyl)-3-((7-(3-hydroxynaphthalen-1-yl)-4-(4-propionylpiperazin-1-yl)-5,6,7,8-tetrahydropyrido[3,4-d]pyrimidin-2-yl)amino)propanamide, trifluoroacetic acid]
> 1 µM | > 1 µM | CC(=O)N1CCN(c2nc(NCCC(=O)N3CCC(Cc4ccc(CN(C)Cc5ccc(-n6c(C(=O)NCC(F)(F)F)nnc6-c6cc(C)c(O)cc6O)cc5)cc4)CC3)nc3c2CCN(c2cc(O)cc4ccccc24)C3)CC1 [Compound 114, 4-(4-(((4-((1-(3-((4-(4-acetylpiperazin-1-yl)-7-(3-hydroxynaphthalen-1-yl)-5,6,7,8-tetrahydropyrido[3,4-d]pyrimidin-2-yl)amino)propanoyl)piperidin-4-yl)methyl)benzyl)(methyl)amino)methyl)phenyl)-5-(2,4-dihydroxy-5-methylphenyl)-N-(2,2,2-trifluoroethyl)-4H-1,2,4-triazole-3-carboxamide, trifluoroacetic acid]
0.1 to 1 µM | > 1 µM | C=CC(=O)N1CCN(c2nc(NCCC(=O)N3CCN(c4ccc(-n5c(O)nnc5-c5cc(C(C)C)c(O)cc5O)cc4)CC3)nc3c2CCN(c2cccc4cccc(Cl)c24)C3)C[C@H]1CC#N [Compound 88, (R)-2-(1-acryloyl-4-(7-(8-chloronaphthalen-1-yl)-2-((3-(4-(4-(3-(2,4-dihydroxy-5-isopropylphenyl)-5-hydroxy-4H-1,2,4-triazol-4-yl)phenyl)piperazin-1-yl)-3-oxopropyl)amino)-5,6,7,8-tetrahydropyrido[3,4-d]pyrimidin-4-yl)piperazin-2-yl)acetonitrile, trifluoroacetic acid]
> 1 µM | > 1 µM | CCCc1cc(-c2nnc(O)n2-c2ccc(CNC(=O)CCNc3nc4c(c(N5CCN(C(=O)CC)CC5)n3)CCN(c3cc(O)cc5ccccc35)C4)cc2)c(O)cc1O [Compound 32, N-(4-(3-(2,4-dihydroxy-5-propylphenyl)-5-hydroxy-4H-1,2,4-triazol-4-yl)benzyl)-3-((7-(3-hydroxynaphthalen-1-yl)-4-(4-propionylpiperazin-1-yl)-5,6,7,8-tetrahydropyrido[3,4-d]pyrimidin-2-yl)amino)propanamide, trifluoroacetic acid]
0.1 to 1 µM | > 1 µM | CCC(=O)N1CCN(c2nc(NCCC(=O)N3CCC(CN4CCN(Cc5ccc(-n6c(O)nnc6-c6ccc(O)cc6O)cc5)CC4)CC3)nc3c2CCN(c2cc(O)cc4ccccc24)C3)CC1 [Compound 65, 1-(4-((4-(4-(3-(2,4-dihydroxyphenyl)-5-hydroxy-4H-1,2,4-triazol-4-yl)benzyl)piperazin-1-yl)methyl)piperidin-1-yl)-3-((7-(3-hydroxynaphthalen-1-yl)-4-(4-propionylpiperazin-1-yl)-5,6,7,8-tetrahydropyrido[3,4-d]pyrimidin-2-yl)amino)propan-1-one, trifluoroacetic acid]
> 1 µM | > 1 µM | C=CC(=O)N1CCN(c2nc(NCCC(=O)NCc3ccc(-n4c(O)nnc4-c4ccc(O)cc4O)cc3)nc3c2CCN(c2cccc4ccccc24)C3)C[C@H]1CC#N [Compound 81]

From US20230391772A1, “METHODS AND COMPOSITIONS FOR TARGETED PROTEIN DEGRADATION” (Ranok Therapeutics (Hangzhou) Co. Ltd., priority 2020, published 2023)
